Activity calls are given as the source filed them.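 The calls were made as follows: active = compounds giving half or more protection of infected cells from virus-caused growth loss, again on retest; inactive = the rest.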
Tested on: CEM cells HIV-1 protection, formazan growth assay
Assay: NCI AIDS Antiviral Assay
Details: for IC50: measured here: growth of uninfected CEM cells
Method in brief: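 Category rules: moderately active means at least 50% protection on retest, and confirmed active means 100% protection reproducibly. The underlying data came from a formazan growth assay in HIV-1-infected CEM cells.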

Structure (SMILES)	EC50 [µM]	IC50 [µM]	outcome
N#CC12C(=O)NC(=O)C1(C#N)C2c1ccccc1 (stereo not drawn)	> 501	> 501	
Cc1ccc2c(c1)C1(C)OC(CC(N)C1O)O2 (stereo not drawn)			inactive
Cc1cc(C)nc(NS(=O)(=O)c2ccc(NNc3c4ccccc4nc4c(C(=O)Nc5ccc(S(=O)(=O)Nc6cc(C)on6)cc5)cccc34)cc2)n1	> 200	34.7	
Cc1ccc(/S(Cc2ccccc2)=N\S(=O)(=O)c2ccc(C)cc2)cc1 (stereo not drawn)	> 67.6	> 67.6	
CC(C)(C)OC(=O)/C=C/C(=O)O/C=C/[N+](=O)[O-]	> 200	> 200	
C/C=C(\C)c1cc(OC)c(C)c2c1C(=O)Oc1c(C)c(O)c(Cl)c(/C(C)=C/C)c1O2			inactive
CSc1c(C#N)c2n(c3ccccc3[n+]2C)c2ncccc12	> 200	3.31	
O=C1OC2CSCC2O1 (stereo not drawn)	> 1700	> 1700	
COC(=O)N[C@@H]1C[C@H]2CC[C@]1(O[Si](C(C)C)(C(C)C)C(C)C)C(=O)C2	> 200	16.6	
O=C(O)Cc1cc(=O)oc2c1ccc1ccccc12	> 200	135	
O=C1/C(=C/c2ccc([N+](=O)[O-])cc2)Oc2cc(O)ccc21	> 200	35.5	
CC(=O)Nc1ccc(/C=N/NC(=S)NC2CN3CCC2CC3)cc1 (stereo not drawn)	> 200	> 200	
CCOc1ccc(C2OCCC(C)O2)cc1OC (stereo not drawn)	> 200	> 200	
Cc1cc(=O)oc2c(CNC(Cc3ccccc3)C(=O)O)c(O)ccc12 (stereo not drawn)	> 200	> 200	
COc1ccc(C(O)C(=O)c2nc3ccc(Cl)cc3[nH]c2=O)cc1 (stereo not drawn)			inactive
CCCCc1c2c(nc3c1CCCC3O)CCCC2 (stereo not drawn)	> 200	81.3	
Cc1ccc(-c2c(C#N)c(S)n(NS(=O)(=O)c3ccc(C)cc3)c(=O)c2C#N)cc1	> 200	11.7	
CCOP(C)(=O)/C(Cc1ccc(OC)c(OC)c1)=N\O (stereo not drawn)	> 200	> 200	
O=C(CCc1ccc(O)cc1)NCCc1cccc(O)c1	43.7	> 100	
Cc1c(Cl)cccc1NC(=O)CN(CC(C)C)CC(C)C	> 200	33.1	
CC1OC2COC(C)OC2C(C2CN2)O1 (stereo not drawn)	> 933	589	
CN(C)CCSc1nccc(-c2cc3ccccc3s2)n1	> 417	11.5	
Cc1cc2c(cn1)C(=O)OCC2			inactive
CN(C)CC/C=C1/c2ccccc2Sc2ccc(Cl)cc21	> 200	27.5	

Structure (SMILES)	EC50 [µM]	IC50 [µM]	outcome
Cc1ccc(S(=O)(=O)Nn2c(O)c(C#N)c(-c3ccc(N(C)C)cc3)c(C#N)c2=O)cc1	> 200	> 200	
OC1CN2CCC[C@@H](O)[C@@H]2C1O (stereo partly drawn)	> 200	> 200	
CCCC1C(CC)C(NC)C(C#N)(C#N)C1(C#N)C#N (stereo not drawn)	> 200	10.2	
CC1=CC(=O)/C(=C/n2c(=S)[nH]c3cc(C)ccc32)C(=O)O1	> 200	195	
O=c1scc(-c2ccc([N+](=O)[O-])cc2)s1	> 6.03	> 6.03	
CCOC(=O)c1[nH]c(COC(C)=O)c(CCCOC(C)=O)c1CCCOC(C)=O			inactive
CC(=O)OCC(OC(C)=O)C(OC(C)=O)C(/C=N/N(C(C)=O)S(=O)(=O)c1ccc(/C=C2\NC(=O)NC2=O)cc1)OC(C)=O (stereo not drawn)	> 200	105	
NC(=O)n1ncc(Cl)c(Cl)c1=O	> 91.2	47.9	
O=C1C=C(Nc2ccccc2C(=O)CC(=O)C(=O)Nc2ccc(Cl)c(Cl)c2)c2ccccc2C1=O	> 26.9	> 26.9	
CCC(=O)C(C(C)/C=C/CCSc1ccccc1)C(O)CCCCCC(=O)OC (stereo not drawn)	> 200	36.3	
CCOP(=O)(OCC)OP(=O)(OCC)OCC	> 871	> 871	
Cc1ccc(S(=O)(=O)C2CC3CC2C2COCC32)cc1 (stereo not drawn)	> 75.9	> 75.9	
CN(C)CC1CCCC(CN(C)C)C1=NO (stereo not drawn)			inactive
O=C1/C(=C/c2ccc(O)cc2)NC(=S)N1CN1CCCCC1	> 200	32.4	
OCCN1CSC(=S)NCCNC(=S)SC1	> 63.1	> 63.1	
CCc1cccc2c3c([nH]c12)C(CC)(CC(=O)O)OCC3 (stereo not drawn)	> 200	> 200	
N#Cc1cc2c(n(C3OC(CO)C(O)C(O)C3O)c1=S)CCCC2 (stereo not drawn)	> 200	> 200	
Cn1c2ccccc2n2c3ncccc3c(=S)c(C#N)c12	> 200	> 200	
O=C1NC(=NC2CCCCC2)C2(CCN(CCCC3(c4ccc(F)cc4)OCCO3)CC2)N1c1ccccc1	> 200	102	
Cn1c2ccc(Cl)cc2c2oc(-c3nn[nH]n3)cc(=O)c21	> 200	174	
NNC(=O)c1ccc(OCc2nc3ccccc3[nH]2)cc1	> 200	67.6	
CCOC(=O)C1(C#N)C(C#N)(C#N)C12CCCCC2 (stereo not drawn) (tested in a mixture with another compound)	> 200	6.03	
Cc1cc(C)c(C(=O)c2cccc(C)c2C(=O)O)c(C)c1	> 200	> 200	

— PubChem BioAssay AID179 (DTP/NCI, 2004)
